Results on three compounds are retold here after paper PMC5895803, “Inhibition of cancer stem cell like cells by a synthetic retinoid” (Nature Communications, 2018).

Data set [1] concerns B16-F1 TRCs. Nature of the data set: Colony growth of B16-F1 TRCs in 90-Pa 3D soft fibrin gels. It counts as cell-based, murine. Conditions: 10 µM added day 3, washed out day 4, 3 days after washout.
The target in data set [2] is T1, CYP 1A2 (Homo sapiens, UniProt P05177).
T1 construct: from tissue; host or cells: human liver microsomes
T1 sequence (P05177 whole entry): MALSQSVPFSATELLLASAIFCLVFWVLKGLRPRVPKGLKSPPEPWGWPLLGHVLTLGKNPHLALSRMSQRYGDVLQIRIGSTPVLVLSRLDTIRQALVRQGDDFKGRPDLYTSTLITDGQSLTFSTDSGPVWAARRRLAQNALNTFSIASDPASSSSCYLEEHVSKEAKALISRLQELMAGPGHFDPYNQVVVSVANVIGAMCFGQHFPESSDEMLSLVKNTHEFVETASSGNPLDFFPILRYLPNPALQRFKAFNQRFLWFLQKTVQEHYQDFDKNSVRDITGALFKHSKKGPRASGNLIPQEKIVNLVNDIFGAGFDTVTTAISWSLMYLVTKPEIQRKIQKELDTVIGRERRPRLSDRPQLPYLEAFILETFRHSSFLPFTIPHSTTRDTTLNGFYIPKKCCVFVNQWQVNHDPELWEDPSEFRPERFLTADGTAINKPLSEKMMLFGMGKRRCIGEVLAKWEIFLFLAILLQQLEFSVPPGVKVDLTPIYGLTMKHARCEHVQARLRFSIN
Nature of the data set: Cytochromes enzyme inhibition assay, human liver microsomes. Conditions: substrate phenacetin (30 µM). It counts as in vitro ADME. In general terms: Microsomes from liver hold many membrane-bound enzymes, among them those of drug oxidation.

In data set [3] the target is T2, CYP 2C9 (Homo sapiens, UniProt P11712).
T2 construct: from tissue; host or cells: human liver microsomes
T2 sequence (P11712 whole entry): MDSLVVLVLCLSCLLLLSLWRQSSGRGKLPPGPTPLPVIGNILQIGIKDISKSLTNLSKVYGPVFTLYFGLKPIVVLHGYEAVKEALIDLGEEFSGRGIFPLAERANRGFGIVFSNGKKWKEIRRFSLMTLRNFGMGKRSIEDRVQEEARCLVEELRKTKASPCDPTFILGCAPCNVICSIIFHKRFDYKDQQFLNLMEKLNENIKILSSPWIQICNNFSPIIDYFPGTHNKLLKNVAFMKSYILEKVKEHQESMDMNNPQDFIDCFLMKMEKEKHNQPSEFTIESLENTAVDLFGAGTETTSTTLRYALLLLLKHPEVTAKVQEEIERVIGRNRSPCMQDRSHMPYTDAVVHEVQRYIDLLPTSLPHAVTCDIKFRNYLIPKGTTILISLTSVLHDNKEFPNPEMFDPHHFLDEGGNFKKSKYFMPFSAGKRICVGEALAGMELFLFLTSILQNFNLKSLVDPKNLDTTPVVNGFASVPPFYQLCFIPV
The data set is described as above. The following applies: substrate diclofenac (10 µM). It counts as in vitro ADME.

Data set [4] has as its target T3, CYP 2C19 (Homo sapiens, UniProt P33261).
T3 construct: from tissue; host or cells: human liver microsomes
The description is as above. The following applies: substrate S-mephenytoin (35 µM). The format is in vitro ADME.

The target in data set [5] is T4, CYP 2D6 (Homo sapiens, UniProt P10635).
T4 construct: from tissue; host or cells: human liver microsomes
T4 sequence (P10635 whole entry): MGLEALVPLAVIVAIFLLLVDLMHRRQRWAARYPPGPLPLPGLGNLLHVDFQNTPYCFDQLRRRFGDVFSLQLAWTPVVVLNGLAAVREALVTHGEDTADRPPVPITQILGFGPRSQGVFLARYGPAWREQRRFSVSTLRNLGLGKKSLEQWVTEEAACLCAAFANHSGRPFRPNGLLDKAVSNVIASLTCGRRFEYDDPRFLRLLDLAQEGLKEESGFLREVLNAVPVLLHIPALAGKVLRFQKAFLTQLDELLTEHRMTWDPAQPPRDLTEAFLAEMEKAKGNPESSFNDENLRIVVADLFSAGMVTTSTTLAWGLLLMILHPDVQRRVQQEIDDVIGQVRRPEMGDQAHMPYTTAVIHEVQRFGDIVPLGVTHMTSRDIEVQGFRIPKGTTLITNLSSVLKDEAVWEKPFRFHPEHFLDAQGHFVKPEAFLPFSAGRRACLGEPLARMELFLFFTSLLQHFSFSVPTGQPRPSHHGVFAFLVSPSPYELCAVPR
Described as above. The format is in vitro ADME. Conditions: substrate bufuralol (10 µM).

For data set [6], the target named is T5, CYP 3A4 (Homo sapiens, UniProt P08684).
T5 construct: from tissue; host or cells: human liver microsomes
T5 sequence (P08684 whole entry): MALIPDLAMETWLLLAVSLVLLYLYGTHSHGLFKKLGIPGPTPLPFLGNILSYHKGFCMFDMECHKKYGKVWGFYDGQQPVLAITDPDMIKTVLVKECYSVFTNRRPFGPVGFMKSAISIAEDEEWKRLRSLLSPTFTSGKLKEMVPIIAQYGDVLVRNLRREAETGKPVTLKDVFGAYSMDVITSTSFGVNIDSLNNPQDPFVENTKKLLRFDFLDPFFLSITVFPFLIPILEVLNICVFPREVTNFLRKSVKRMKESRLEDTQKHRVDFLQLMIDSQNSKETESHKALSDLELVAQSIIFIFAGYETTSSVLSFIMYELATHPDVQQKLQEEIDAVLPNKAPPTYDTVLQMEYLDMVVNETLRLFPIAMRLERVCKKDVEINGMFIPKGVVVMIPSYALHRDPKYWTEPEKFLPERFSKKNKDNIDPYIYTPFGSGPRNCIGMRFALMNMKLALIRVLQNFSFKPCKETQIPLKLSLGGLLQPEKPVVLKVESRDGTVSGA
The data set is described as above. It counts as in vitro ADME.

In data set [7] the test system is B16-F1 TRCs lung metastases. Nature of the data set: Lung metastasis of B16-F1 TRCs in immune-competent mice. The format is in vivo, C57BL/6 mice. The following applies: for Metastases in H&E-stained organ sections: 0.022 mg kg-1; for Mice with lung metastases: 8 mice per group, day 30. The source says:
Four- to six-week-old female and male C57BL/6 mice were used in mice experiment. Mice were randomized into different groups. In metastasis experiment, B16-F1 cell spheroids were selected from 3D 90-Pa fibrin gels and pipetted to single cells. These TRCs were harvested and the cell number was counted under microscopy. The cells were then suspended in PBS with appropriate cell density. Thirty thousand TRCs were intravenously injected into the tail vein of each wild-type C57BL/6 mouse. Five days later, inoculated mice were intravenous implanted with 0.022 mg kg^−1 WYC-209, 0.22 mg kg^−1 WYC-209, or 0.1% DMSO every two days. The mice were euthanized and examined for lung tumor formation at day 30. In treated TRCs injected in vivo experiments, B16-F1 cells were seeded into 3D 90-Pa fibrin gels and treated with 10 µM WYC-209 or 0.1% DMSO on day 3, then isolated treated TRCs colonies on day 5 and pipetted into single cell. 30,000 of TRCs were intravenously injected into the tail vein of each wild-type C57BL/6 mouse. No blinding was performed in the mice experiments.
Lung, liver, spleen, bone, stomach, and brain of C57BL/6 mice were fixed by 4% paraformaldehyde then were embedded in paraffin and cut to ~4 µm thick sections by Thermo FINESSE 325. Organ sections were stained by H&E and slides were evaluated for tumor formation by a veterinary pathologist blinded to sample identity.

The subject of data set [8] is unselected human cancer cells. Kind of data set: Unselected human cancer cells on 2D rigid dishes. The format is cell-based. Conditions: 10 μM, 48 hours. The protocol: Supplementary Figure 20. WYC-209 detaches adherent human cancer cells on rigid plastic. (a-e): human melanoma MDA-MB-435s (a), human breast cancer MCF-7 (b), human ovarian cancer A2780 (c), human malignant melanoma A375 (d), and human lung cancer A549 (e) were cultured on rigid plastics and treated with 0.1, 1, or 10 μM WYC-209, WYC-209A, or WYC-209B and cell numbers were measured for 48 hours. Cell nuclei were stained with DAPI. None: medium only; DMSO: medium containing 0.1% DMSO. Cell numbers per view field were quantified. Mean ± s.e.m.; n= 5 samples; 3 separate experiments; *P<0.05; ** P<0.01; *** P<0.001 […]
(§1) (1 picture or pasted object on this page, not shown here)

A short description of data set [9]: Water solubility. The following applies: PBS (pH 7.4), pH 7.4, aqueous buffer, kinetic from dmso stock.
Data set [10] deals with hERG channels (Homo sapiens, UniProt Q12809). Kind of data set: Functional hERG blocking assay, patch clamp in CHO hERG cell line. (Block of hERG is tested as a sign of cardiac risk.)
Chain of hERG channels (Q12809 whole entry): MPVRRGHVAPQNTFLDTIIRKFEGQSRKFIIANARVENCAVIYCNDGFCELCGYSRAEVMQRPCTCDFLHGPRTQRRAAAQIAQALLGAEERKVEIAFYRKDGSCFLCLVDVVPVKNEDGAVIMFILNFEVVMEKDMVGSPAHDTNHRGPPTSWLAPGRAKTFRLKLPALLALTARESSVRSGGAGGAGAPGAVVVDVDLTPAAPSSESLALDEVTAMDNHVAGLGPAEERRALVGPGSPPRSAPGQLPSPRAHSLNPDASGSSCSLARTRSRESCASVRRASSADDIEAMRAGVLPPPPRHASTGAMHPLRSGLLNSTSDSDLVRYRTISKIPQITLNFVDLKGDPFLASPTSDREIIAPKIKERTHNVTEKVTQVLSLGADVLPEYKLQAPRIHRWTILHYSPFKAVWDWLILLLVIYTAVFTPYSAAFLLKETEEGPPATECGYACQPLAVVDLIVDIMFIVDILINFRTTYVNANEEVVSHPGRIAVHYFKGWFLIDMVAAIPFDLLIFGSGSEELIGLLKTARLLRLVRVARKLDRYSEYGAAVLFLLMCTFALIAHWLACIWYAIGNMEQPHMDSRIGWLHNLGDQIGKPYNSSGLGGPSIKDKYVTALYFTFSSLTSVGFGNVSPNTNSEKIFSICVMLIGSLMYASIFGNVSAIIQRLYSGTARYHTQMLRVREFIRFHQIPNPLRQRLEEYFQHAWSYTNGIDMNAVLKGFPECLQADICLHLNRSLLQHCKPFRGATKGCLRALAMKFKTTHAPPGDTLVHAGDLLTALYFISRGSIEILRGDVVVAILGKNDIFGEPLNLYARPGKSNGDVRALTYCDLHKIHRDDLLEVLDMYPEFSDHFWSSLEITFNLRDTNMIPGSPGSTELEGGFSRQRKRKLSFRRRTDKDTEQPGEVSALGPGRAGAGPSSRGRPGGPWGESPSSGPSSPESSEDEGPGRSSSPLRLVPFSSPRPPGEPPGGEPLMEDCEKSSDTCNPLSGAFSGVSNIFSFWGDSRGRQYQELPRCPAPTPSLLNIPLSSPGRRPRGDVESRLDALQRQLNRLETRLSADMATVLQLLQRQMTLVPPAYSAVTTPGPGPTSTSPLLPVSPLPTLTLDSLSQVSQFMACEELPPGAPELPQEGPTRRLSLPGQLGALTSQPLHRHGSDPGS
The test system of data set [11] is human melanoma MDA-MB-435s. Kind of data set: Colony growth of MDA-MB-435s TRCs in 90-Pa fibrin gels. The format is cell-based. The protocol: (§2) Salmon fibrinogen and thrombin were purchased from Reagent Proteins (CA, USA). 3D fibrin gels were prepared as described previously[5],[6]. In brief, fibrinogen was diluted into 2 mg mL^−1 with T7 buffer (pH 7.4, 50 mM Tris, 150 mM NaCl). Cells were detached from 2D rigid dishes and cell density was adjusted to 10^4 cells per mL. Fibrinogen and cell solution mixture were made by mixing the same volume of fibrinogen solution and cell solution, resulting in 1 mg mL^−1 fibrinogen and 5000 cells per mL in the mixture fibrin gels. A volume of 50 μL cell/fibrinogen mixture was seeded into each well of 96-well plate and mixed well with pre-added 1 μL thrombin (100 U mL^−1). The cell culture plate was then incubated in 37 °C cell culture incubator for 10 min. Finally, 200 μL of DMEM medium containing 10% FBS and antibiotics was added.

The test system of data set [12] is human malignant melanoma A375. Kind of data set: Colony growth of A375 TRCs in 90-Pa fibrin gels. It counts as cell-based. The following applies: Homo sapiens. The protocol:
as §2

Data set [13] deals with Sox2. Nature of the data set: Sox2 expression by qPCR in TRCs. It counts as cell-based, murine. The protocol: Total mRNA was isolated from the cells using the Trizol reagent according to the supplier’s instruction (Invitrogen). Reverse transcription (RT) was performed using the TransScript First-strand cDNA Synthesis SuperMix (TransGen), according to the manufacturer’s protocol. Real-time RT-PCR was performed using GoTaq qPCR Master Mix (Promega). The data were normalized against mouse glyceraldehyde 3-phosphate dehydrogenase. The primer sequences are as follows: mouse GAPDH (F: 5′-[…]-3′, R: 5′-[…]-3′); mouse RARα (F: 5′-[…]-3′, R: 5′-[…]-3′); mouse RARβ (F: 5′-[…]-3′, R: 5′-[…]-3′); mouse RARγ (F: 5′-[…]-3′, R:5′-[…]-3′); mouse Sox2 (F: 5′-[…]-3′, R: 5′-[…]-3′); mouse Mitf (F: 5′-[…]-3′, R: 5′-[…]-3′).
Supplementary Figure 39. WYC-209 decreases Sox2 expression but has no effects on Mitf expression. Murine melanoma cells B16-F1 were seeded into 3D soft fibrin gels and then were treated with 0.1% DMSO, 0.1, 1 or 10 µM WYC-209, WYC-209A, or WYC-209B on day 4. mRNA of cells were extracted after 24 hours. Sox2 (a) and Mitf (b) expressions […]
as §1
(Real-time PCR tracks product formation cycle by cycle.)

Where [14] appears, read: 0.022 mg kg−1 i.v. every two days from day 5 after 30,000 TRCs i.v.
Setting [15] is: 0.22 mg kg−1 i.v. every two days from day 5 after 30,000 TRCs i.v.

Structures are written as SMILES. pIC50: −log10 of the molar value. Converted amounts (≈) assume the structure as drawn. “And” between values parts separate entries of the source, which are not always exact repeats. Identical values can stand only once.

T3 sequence (P33261 whole entry): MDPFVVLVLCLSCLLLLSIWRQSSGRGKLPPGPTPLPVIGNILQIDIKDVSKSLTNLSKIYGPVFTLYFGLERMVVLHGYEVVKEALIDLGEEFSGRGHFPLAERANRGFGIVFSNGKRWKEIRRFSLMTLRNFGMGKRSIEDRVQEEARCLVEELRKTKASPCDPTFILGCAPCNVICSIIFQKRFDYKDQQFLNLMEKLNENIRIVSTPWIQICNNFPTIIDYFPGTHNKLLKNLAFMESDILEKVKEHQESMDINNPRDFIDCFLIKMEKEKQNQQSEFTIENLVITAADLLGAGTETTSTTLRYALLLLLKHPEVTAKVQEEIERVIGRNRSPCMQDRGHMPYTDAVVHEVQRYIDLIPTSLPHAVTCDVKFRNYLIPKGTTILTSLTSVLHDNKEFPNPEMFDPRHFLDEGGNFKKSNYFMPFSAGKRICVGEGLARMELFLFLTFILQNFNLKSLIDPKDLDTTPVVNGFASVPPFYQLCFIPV

With `CCOC(=O)c1cnc(C#Cc2ccc3c(c2)C(C)(C)CC[S@@+]3[O-])nc1` [WYC-209B], the “TRC growth after compound washout” value in data set [1] was “failed to resume growing”. The negative-log IC50 (pIC50) in [2], in data set [3], in [4], in [5], in data set [6] (first 3A4 column) and in data set [6] (second 3A4 column) was < 5.00 throughout. The negative logarithm of the IC50 (pIC50) (as a rule, −log10 of the IC50, conventionally taken in molar units) in data set [10] was < 4.52. Besides, in [7], the “Metastases in H&E-stained organ sections” value is recorded as “exhibited metastases in the lungs but not in other organs”. Further, the “Mice with lung metastases” value in [7] (setting [14]) is on record as “three out of eight”; in data set [7] (setting [15]) it was “one out of eight”. Further, the “Growth of unselected human cancer cells on 2D rigid dishes” value (from here on “Growth of unselected human cancer cells”) in data set [8] is reported as “completely blocked cell growth”. The solubility (usually how much of the substance goes into solution per volume) at 1 h in [9] was found to be 88.1 µM (≈ 32.5 µg/mL).

As for `CCOC(=O)c1cnc(C#Cc2ccc3c(c2)C(C)(C)CC[S@+]3[O-])nc1` [WYC-209A], the “TRC growth after compound washout” value in [1] was “failed to resume growing”. Also, the pIC50 in data set [2], in [3], in [4], in data set [5], in data set [6] (first 3A4 column) and in data set [6] (second 3A4 column) was < 5.00 in each case. Besides, in [10], the pIC50 was < 4.52. Moreover, the “Metastases in H&E-stained organ sections” value in [7] is “exhibited metastases in the lungs but not in other organs”. In addition, the figures for the “Mice with lung metastases” value in data set [7] (setting [14]) and in data set [7] (setting [15]) were “three out of eight” and “one out of eight”, respectively. For the same compound, the “Growth of unselected human cancer cells” value in [8] is “completely blocked cell growth”. Also, the solubility at 1 h in data set [9] was 89.4 µM (≈ 32.9 µg/mL).

Turning to `CCOC(=O)c1cnc(C#Cc2ccc3c(c2)C(C)(C)CC[S+]3[O-])nc1` (stereo not drawn) [WYC-209], the “TRC growth after compound washout” value in data set [1] is given as “failed to resume growing”. Moreover, the pIC50 in data set [11] (0 h, treated on day 0) was 6.28; in data set [12] (A-375, 0 h, A375, treated on day 0) it was 6.42. The inhibition (commonly how much of the control response was suppressed) at 10 µM in [11] (10 μM) stood at 100%; in data set [12] (A-375, A375, 10 μM) it was 100%. In addition, the “Mice with lung metastases” value in data set [7] (setting [14]) was “four out of eight and 4/8”; in data set [7] (setting [15]), “one out of eight and 1/8”. In [7] (0.22 mg kg−1), the “Average lung weight versus DMSO group” value is listed as “less”. Also, in data set [7] (0.22 mg kg−1), the “Lung metastases of melanoma TRCs abrogated” value turned out to be 87.5%. For the same compound, the “Lung metastases in untreated mice injected with pretreated TRCs” value in data set [7] (TRCs pretreated with 10 µM in fibrin gels day 3-5, 30,000 TRCs i.v., 8 mice) is reported as “no lung metastases”. Besides, the “Decrease of Sox2 expression” value in data set [13] (10 μM, 24 h) is listed as ~ 50%. The “Change in Sox2 expression” value in [13] (0.1 or 1 µM) is “no change”. In addition, the “Growth of unselected human cancer cells” value in data set [8] was “completely blocked cell growth”.
